Patent US4971993A, “Dipeptide derivatives and antihypertensive drugs containing them” (Ajinomoto Co., Inc., priority 1985, dated 1990)
Peptide text beside a SMILES is read from it. * marks the point of attachment. Mts = Cc1cc(C)c(S(=O)(=O)*)c(C)c1; Tos = Cc1ccc(S(=O)(=O)*)cc1

system: spontaneously hypertensive rats; test: Antihypertensive activity: systolic blood pressure measured indirectly on conscious SHR after a single oral dose; type: in vivo; details: male, 0.05 mmole/kg aqueous solution, once force-fed into the stomach
Protocol: The antihypertensive activity of the peptide derivatives as prepared above was determined.
As subject animals there were used 5 SHR which had been trained enough and been confirmed to be hypertensive spontaneously hypertensive rats (male, body weight of 400-440 g),per sample
As an instrument for measuring the blood pressure there was used Programmed Electro-Sphygmomanometer PE-300 (Narco Co., U.S.A.), and the blood pressure was indirectly measured on conscious rats.
An aqueous solution of a sample (0.05 mmole/kg) was once force-fed into the stomach by means of a peroal probe. As a control, deionized water was fed to the same animals as above.

Molecule	Hours after Administration (time of lowest systolic blood pressure)	Systolic Blood Pressure, Lowest value after Administration
C[C@H](NS(=O)(=O)Cc1ccccc1)C(=O)N1CCC[C@H]1C(=O)O [Example 7, N-benzylsulfonyl-L-alanyl-L-proline]	7 h	194 mmHg
C[C@H](NS(=O)(=O)c1ccccc1N)C(=O)N1CCC[C@H]1C(=O)O [Example 6, N-o-aminobenzenesulfonyl-L-alanyl-L-proline]	7 h	197 mmHg
O=C(O)[C@@H]1CCCN1C(=O)[C@@H](NS(=O)(=O)c1ccccc1)c1ccccc1 [Example 13, N-benzenesulfonyl-L-phenylglycyl-L-proline]	7 h	204 mmHg
C[C@H](NS(=O)(=O)c1ccccc1)C(=O)N1CCC[C@H]1C(=O)O [Example 1, N-benzenesulfonyl-L-alanyl-L-proline]	8 h	185 mmHg
O=C(O)[C@@H]1CCCN1C(=O)[C@H](CO)NS(=O)(=O)c1ccccc1 [Example 17, N-benzenesulfonyl-L-seryl-L-proline]	7 h	194 mmHg
CC[C@H](C)[C@H](NS(=O)(=O)c1ccccc1)C(=O)N1CCC[C@H]1C(=O)O [Example 12, N-benzenesulfonyl-L-isoleucyl-L-proline]	7 h	191 mmHg
2-benzenesulfonylamino isobutyryl-L-proline sodium salt [Example 21]	7 h	193 mmHg
CC(C)[C@H](NS(=O)(=O)c1ccccc1)C(=O)N1CCC[C@H]1C(=O)O [Example 11, N-benzenesulfonyl-L-valyl-L-proline]	7 h	203 mmHg
C[C@H](NS(=O)(=O)c1ccccc1C(=O)O)C(=O)N1CCC[C@H]1C(=O)O [Example 8, N-o-carboxybenzenesulfonyl-L-alanyl-L-proline]	7 h	194 mmHg
Cc1cc(C)c(S(=O)(=O)N[C@@H](C)C(=O)N2CCC[C@H]2C(=O)O)c(C)c1 [Example 2, N-mesitylenesulfonyl-L-alanyl-L-proline] (Mts-Ala-Pro-OH)	7 h	191 mmHg
O=C(O)[C@@H]1CCCN1C(=O)CNS(=O)(=O)c1ccccc1 [Example 10, N-benzenesulfonylglycyl-L-proline]	7 h	201 mmHg
C[C@H](NS(=O)(=O)c1cccc2ccccc12)C(=O)N1CCC[C@H]1C(=O)O [Example 4, N-α-naphthalenesulfonyl-L-alanyl-L-proline]	7 h	185 mmHg
CSCC[C@H](NS(=O)(=O)c1ccccc1)C(=O)N1CCC[C@H]1C(=O)O [Example 15, N-benzenesulfonyl-L-methionyl-L-proline]	4 h	206 mmHg
Cc1ccc(S(=O)(=O)N[C@@H](C)C(=O)N2CCC[C@H]2C(=O)O)cc1 [Example 3, N-p-toluenesulfonyl-L-alanyl-L-proline] (Tos-Ala-Pro-OH)	7 h	194 mmHg
O=C(O)[C@@H]1CCCN1C(=O)[C@@H]1CCCN1S(=O)(=O)c1ccccc1 [Example 16, N-benzenesulfonyl-L-prolyl-L-proline]	7 h	195 mmHg
C[C@H](NS(=O)(=O)c1ccccc1[N+](=O)[O-])C(=O)N1CCC[C@H]1C(=O)O [Example 5, N-α-nitrobenzenesulfonyl-L-alanyl-L-proline]	7 h	193 mmHg
N-ethanesulfonyl-L-alanyl-L-proline potassium salt [Example 9]	7 h	213 mmHg
O=C(O)CC[C@H](NS(=O)(=O)c1ccccc1)C(=O)N1CCC[C@H]1C(=O)O [Example 18, N-benzenesulfonyl-L-glutamyl-L-proline]	7 h	189 mmHg
NCCCC[C@H](NS(=O)(=O)c1ccccc1)C(=O)N1CCC[C@H]1C(=O)O [Example 19, N^α -benzenesulfonyl-L-lysyl-L-proline]	7 h	191 mmHg
O=C(O)[C@@H]1CCCN1C(=O)[C@H](Cc1ccccc1)NS(=O)(=O)c1ccccc1 [Example 14, N-benzenesulfonyl-L-phenylalanyl-L-proline]	7 h	201 mmHg

same assay, conditions: male, 0.05 mmole/kg once orally, lowest value minus value before administration

Molecule	ΔBlood Pressure (systolic)
C[C@H](NS(=O)(=O)Cc1ccccc1)C(=O)N1CCC[C@H]1C(=O)O [Example 7, N-benzylsulfonyl-L-alanyl-L-proline]	-21 mmHg
C[C@H](NS(=O)(=O)c1ccccc1N)C(=O)N1CCC[C@H]1C(=O)O [Example 6, N-o-aminobenzenesulfonyl-L-alanyl-L-proline]	-35 mmHg
O=C(O)[C@@H]1CCCN1C(=O)[C@@H](NS(=O)(=O)c1ccccc1)c1ccccc1 [Example 13, N-benzenesulfonyl-L-phenylglycyl-L-proline]	-8 mmHg
C[C@H](NS(=O)(=O)c1ccccc1)C(=O)N1CCC[C@H]1C(=O)O [Example 1, N-benzenesulfonyl-L-alanyl-L-proline]	-28 mmHg
O=C(O)[C@@H]1CCCN1C(=O)[C@H](CO)NS(=O)(=O)c1ccccc1 [Example 17, N-benzenesulfonyl-L-seryl-L-proline]	-22 mmHg
CC[C@H](C)[C@H](NS(=O)(=O)c1ccccc1)C(=O)N1CCC[C@H]1C(=O)O [Example 12, N-benzenesulfonyl-L-isoleucyl-L-proline]	-21 mmHg
2-benzenesulfonylamino isobutyryl-L-proline sodium salt [Example 21]	-17 mmHg
CC(C)[C@H](NS(=O)(=O)c1ccccc1)C(=O)N1CCC[C@H]1C(=O)O [Example 11, N-benzenesulfonyl-L-valyl-L-proline]	-11 mmHg
C[C@H](NS(=O)(=O)c1ccccc1C(=O)O)C(=O)N1CCC[C@H]1C(=O)O [Example 8, N-o-carboxybenzenesulfonyl-L-alanyl-L-proline]	-9 mmHg
Cc1cc(C)c(S(=O)(=O)N[C@@H](C)C(=O)N2CCC[C@H]2C(=O)O)c(C)c1 [Example 2, N-mesitylenesulfonyl-L-alanyl-L-proline] (Mts-Ala-Pro-OH)	-11 mmHg
O=C(O)[C@@H]1CCCN1C(=O)CNS(=O)(=O)c1ccccc1 [Example 10, N-benzenesulfonylglycyl-L-proline]	-9 mmHg
C[C@H](NS(=O)(=O)c1cccc2ccccc12)C(=O)N1CCC[C@H]1C(=O)O [Example 4, N-α-naphthalenesulfonyl-L-alanyl-L-proline]	-13 mmHg
CSCC[C@H](NS(=O)(=O)c1ccccc1)C(=O)N1CCC[C@H]1C(=O)O [Example 15, N-benzenesulfonyl-L-methionyl-L-proline]	-13 mmHg
Cc1ccc(S(=O)(=O)N[C@@H](C)C(=O)N2CCC[C@H]2C(=O)O)cc1 [Example 3, N-p-toluenesulfonyl-L-alanyl-L-proline] (Tos-Ala-Pro-OH)	-12 mmHg
O=C(O)[C@@H]1CCCN1C(=O)[C@@H]1CCCN1S(=O)(=O)c1ccccc1 [Example 16, N-benzenesulfonyl-L-prolyl-L-proline]	-21 mmHg
C[C@H](NS(=O)(=O)c1ccccc1[N+](=O)[O-])C(=O)N1CCC[C@H]1C(=O)O [Example 5, N-α-nitrobenzenesulfonyl-L-alanyl-L-proline]	-18 mmHg
N-ethanesulfonyl-L-alanyl-L-proline potassium salt [Example 9]	-5 mmHg
O=C(O)CC[C@H](NS(=O)(=O)c1ccccc1)C(=O)N1CCC[C@H]1C(=O)O [Example 18, N-benzenesulfonyl-L-glutamyl-L-proline]	-14 mmHg
NCCCC[C@H](NS(=O)(=O)c1ccccc1)C(=O)N1CCC[C@H]1C(=O)O [Example 19, N^α -benzenesulfonyl-L-lysyl-L-proline]	-28 mmHg
O=C(O)[C@@H]1CCCN1C(=O)[C@H](Cc1ccccc1)NS(=O)(=O)c1ccccc1 [Example 14, N-benzenesulfonyl-L-phenylalanyl-L-proline]	-18 mmHg
